Assay results reported in US6087334A, “Anti-diabetic peptides” (Amylin Pharmaceuticals, Inc., priority 1998, dated 2000).
Where a SMILES comes first, the peptide text is derived from it. Bridges are numbered along the chain shown (N, C = ends).

target: T1, C1a receptor (C1a-type calcitonin receptor) (Rattus norvegicus, UniProt P32214); assay: C1a/293 competitive binding, displacement of [125I]-human calcitonin (Example C); conditions: HEK293 plasma membranes (C1a/293), [125I]-human calcitonin 20 pM
T1 construct: expressed in transfected cells
T1 sequence (P32214 25-479 isoform P32214-2 limits assumed): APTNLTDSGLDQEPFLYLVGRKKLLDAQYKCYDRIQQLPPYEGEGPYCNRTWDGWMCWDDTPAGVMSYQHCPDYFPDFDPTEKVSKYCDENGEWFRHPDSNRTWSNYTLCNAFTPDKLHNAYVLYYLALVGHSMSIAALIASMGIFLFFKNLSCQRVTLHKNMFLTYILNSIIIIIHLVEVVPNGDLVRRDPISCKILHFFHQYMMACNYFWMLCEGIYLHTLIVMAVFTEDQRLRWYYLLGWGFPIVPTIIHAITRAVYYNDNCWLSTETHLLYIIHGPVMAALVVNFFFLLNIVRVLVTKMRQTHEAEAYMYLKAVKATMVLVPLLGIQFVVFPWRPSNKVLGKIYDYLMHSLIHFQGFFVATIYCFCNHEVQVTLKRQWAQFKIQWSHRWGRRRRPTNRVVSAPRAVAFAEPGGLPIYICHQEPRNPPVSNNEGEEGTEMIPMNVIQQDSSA
Procedure: Peptide compounds of the present invention may be evaluated for binding to the C1a receptor using the procedures described in Example C. The C1a receptor is the predominant mammalian calcitonin receptor subtype. C1a pcDNA construction and transfection were carried out as previously described (Albrandt et al. 1993, FEBS Letters, 325:225-232). HEK293 cell lines showing stable expression of the rat C1a-type calcitonin receptor (C1a/293) or the human C1a-type calcitonin receptor (1154/293) were selected by G418 resistance and limiting dilution culture methods. Plasma membranes were collected from homogenized HEK293 cells and used in the receptor binding assay. Individual test peptides at concentrations spanning 6 log units starting at around 10^-6 M were examined for their ability to displace [^125 I]-human calcitonin from the plasma membrane preparation using a 96-well microtiter plate format and scintillation counting with a Wallac LKB Beta plate counter. Competitive binding curves were constructed. Non-specific binding was measured in the presence of 100 nM calcitonin. Peptide potencies (IC50 's for competitive binding) were calculated by non-linear regression using Prism™ (version 2.01, GraphPAD Software, San Diego, Calif.).
C1a/293 Competitive Binding Studies:
Compounds were evaluated for competition in binding to the C1a receptor as follows:
Reference peptides used in these studies were purchased from Bachem (Torrance, Calif.). All other chemicals were of the highest commercial grade. [^35 S]-GTPγS was purchased from NEN Life Science Products, Inc., Pittsburgh, Pa. [^125 I]-human calcitonin was purchased from Amersham Pharmacia Biotech, Inc., Piscataway, N.J.
Methods for C1a pcDNA construction and transfection have been previously described (Albrandt, et al. 1993). HEK293 cell lines stably expressing the rat C1a-type calcitonin receptor (C1a/293) or the human C1a-type calcitonin receptor (1154/293) were selected by G418 resistance and limiting dilution culture methods.
Confluent cells were detached from tissue culture flasks by incubation with 5 mM EDTA in PBS. Cells were homogenized in ice-cold 20 mM HEPES, pH 7.4 with a Polytron homogenizer. Plasma membranes were collected using three cycles of washing in fresh buffer followed by centrifugation for 15 minutes at 48,000×g. The final membrane pellet was resuspended in 20 mM HEPES buffer containing 0.2 mM phenylmethylsulfonyl fluoride (PMSF) and stored at -70° C.
Assay buffer contained 5 μg/mL bestatin, 1 μg/mL phosphoramidon, 1 mg/mL bovine serum albumin (fraction V), 1 mg/mL bacitracin, 1 mM MgCl2, and 20 mM HEPES, pH 7.4. Membranes (2-5 μg membrane protein/well), [^125 I]-human calcitonin (20 pM), and peptides were combined in 200 μL buffer in 96-well microtiter plates. After a 60 minute incubation at room temperature, well contents were harvested onto polyethyleneimine-treated GF/B glass fiber pads using a Tomtec Mach II plate harvestor (Hamden, Conn.). Dried pads were combined with scintillant and counted on a Wallac LKB Beta Plate scintillation counter (Gaithersburg, Md.). For competitive binding curves, samples were run in duplicate over a 6 log concentration range starting at 10^-6 or 10^-7 M. Non-specific binding was measured in the presence of 100 nM human calcitonin.

Row | SMILES | IC50 [nM]
1 | CC(C)C[C@H](NC(=O)[C@H](CCCNC(=N)N)NC(=O)[C@H](C)NC(=O)[C@@H](NC(=O)[C@H](C)NC(=O)[C@@H]1CSSC[C@H](NC(=O)[C@@H](N)CCCCN)C(=O)N[C@@H](CC(N)=O)C(=O)N[C@@H]([C@@H](C)O)C(=O)N[C@@H](C)C(=O)N[C@@H]([C@@H](C)O)C(=O)N1)[C@@H](C)O)C(=O)N[C@@H](C)C(=O)N[C@@H](CC(N)=O)C(=O)N[C@@H](Cc1ccccc1)C(=O)N[C@@H](CC(C)C)C(=O)N[C@H](C(=O)N[C@@H](CCCNC(=N)N)C(=O)N[C@@H](CO)C(=O)N[C@@H](CO)C(=O)NCC(=O)N[C@@H](Cc1ccc(O)cc1)C(N)=O)C(C)C [Example 5] (H-KCNTATCATARLANFLVRSSGY-NH2; disulfide 2-7) | 1.4
2 | CC(C)C[C@H](NC(=O)[C@H](CCCNC(=N)N)NC(=O)[C@H](C)NC(=O)[C@@H](NC(=O)[C@H](C)NC(=O)[C@H](C)NC(=O)[C@@H](NC(=O)[C@H](CO)NC(=O)[C@@H](N)CC(C)C)[C@@H](C)O)[C@@H](C)O)C(=O)N[C@@H](C)C(=O)N[C@@H](C)C(=O)N[C@@H](Cc1ccccc1)C(=O)N[C@@H](CC(C)C)C(=O)N[C@@H](C)C(=O)N[C@@H](CCCNC(=N)N)C(=O)N[C@@H](CO)C(N)=O [Example 6] (H-LSTAATARLAAFLARS-NH2) | 1.4
3 | CC(C)C[C@H](NC(=O)[C@H](CCCNC(=N)N)NC(=O)[C@H](C)NC(=O)[C@@H](NC(=O)[C@H](C)NC(=O)[C@@H]1CSSC[C@H](NC(=O)[C@@H](N)CCCCN)C(=O)N[C@@H](CC(N)=O)C(=O)N[C@@H]([C@@H](C)O)C(=O)N[C@@H](C)C(=O)N[C@@H]([C@@H](C)O)C(=O)N1)[C@@H](C)O)C(=O)N[C@@H](C)C(=O)N[C@@H](C)C(=O)N[C@@H](Cc1ccccc1)C(=O)N[C@@H](CC(C)C)C(=O)N[C@@H](C)C(=O)N[C@@H](CCCNC(=N)N)C(=O)N[C@@H](CO)C(=O)N[C@@H](CO)C(=O)NCC(=O)N[C@@H](Cc1ccc(O)cc1)C(N)=O [Example 1] (H-KCNTATCATARLAAFLARSSGY-NH2; disulfide 2-7) | 0.093
4 | CC(C)C[C@H](NC(=O)[C@H](CCCNC(=N)N)NC(=O)[C@H](C)NC(=O)[C@@H](NC(=O)[C@H](C)NC(=O)[C@@H]1CSSC[C@H](N)C(=O)N[C@@H](CC(N)=O)C(=O)N[C@@H]([C@@H](C)O)C(=O)N[C@@H](C)C(=O)N[C@@H]([C@@H](C)O)C(=O)N1)[C@@H](C)O)C(=O)N[C@@H](C)C(=O)N[C@@H](C)C(=O)N[C@@H](Cc1ccccc1)C(=O)N[C@@H](CC(C)C)C(=O)N[C@@H](C)C(=O)N[C@@H](CCCNC(=N)N)C(=O)N[C@@H](CO)C(N)=O [Example 3] (H-CNTATCATARLAAFLARS-NH2; disulfide 1-6) | 0.19
